As usually defined, the pIC50 is −log10 of the IC50, conventionally taken in molar units. A low value points to a high IC50.

For assay [1], the system named is Akt. Put plainly: Western blotting of phosphorylated Akt in SK-BR-3 cells. The assay is classed as cell-based, human. Conditions: Example 4, medium glucose 0.1 mg/mL, 5 mg/mL, two hours. As for the experimental part:
(§1) HER2-expressing human cancer cell line SK-BR-3 (purchased from ATCC) was seeded into a 24-multiwell plate (4.0 x 10^5 cells/well) and cultured overnight in a carbon dioxide gas incubator (5% CO2, 37°C). Then, the medium was exchanged for a medium with a glucose content of 0.1 mg/mL and cultured for another 2 hours. A glucose antimetabolite 2-deoxyglucose was added to a final concentration of 5 mg/mL. Two hours later, the broth was removed and the cells were lysed with an SDS sample buffer (200 µL). This cell lysate (8 µL) was separated by an SDS-PAGE method (gel concentration: 7.5-15%) (Shagger et al., Analytical Biochemistry, No. 166, pp. 368-379, 1987). Then, western blotting analysis was performed in the same manner as in Example 1 to detect phosphorylated HER2, phosphorylated Akt and phosphorylated MAPK.
For orientation: Immunoblotting shows a protein as a band on a membrane.

In assay [2] the test system is MAPK. Put plainly: Western blotting of phosphorylated MAPK in SK-BR-3 cells. It is filed as cell-based, human. Particulars: Example 4, medium glucose 0.1 mg/mL, 5 mg/mL, two hours. As for the experimental part:
as §1

Assay [3] deals with HER2. Put plainly: Western blotting of phosphorylated HER2 in SK-BR-3 cells. Particulars: Example 4, medium glucose 0.1 mg/mL, 5 mg/mL, two hours. The assay is classed as cell-based, human. As for the experimental part:
as §1

In assay [4] the test system is HER2. Put plainly: Western blotting of phosphorylated HER2 in BT-474 cells. It is filed as cell-based, human. As for the experimental part:
(§2) Human HER2-expressing human breast cancer cell line BT-474 (purchased from American Tissue Culture Collection (ATCC)) was seeded into a 24-multiwell plate (BT-474: 1.2 x 10^5 cells/well), and cultured overnight in a carbon dioxide gas incubator (5% CO2, 37°C). A 4-fold dilution series of a mitochondrial respiratory chain complex inhibiting compound (complex I: rotenone, complex III: antimycin, complex V: oligomycin: Wako Pure Chemical Industries) was added starting from a final concentration of 1 µmol/L in 5 steps while continuing culture. After 2 hours, the broth was removed, and the cells were lysed with an SDS sample buffer (200 µL). Western blotting analysis was performed as follows. Specifically, this cell lysate (8 µL) was separated by an SDS-PAGE method (gel concentration: 7.5-15%) (Analytical Biochemistry, No. 166, pp. 368-379, 1987), and transferred to a nitrocellulose membrane (BioRad). Then, an antibody specific to phosphorylated HER2 (Cell signaling technology, Code# 2244), an anti-phosphorylated Akt antibody specific to downstream antiapoptotic signal transducing molecule Akt (Cell signaling technology, Code# 9271) and an anti-phosphorylated MAPK antibody specific to downstream proliferation signal transducing molecule MAPK (Cell signaling technology, Code# 9101) were used to detect the antibody with an ECL system (Amersham) to quantify the amount of phosphorylated protein by an image analysis.
(§3) Human HER2-expressing human cancer cell line BT-474 (purchased from ATCC) was seeded into a 24-multiwell plate (1.2 x 10^5 cells/well) and cultured overnight in a carbon dioxide gas incubator (20% O2, 5% CO2, 37°C). A 3-fold dilution series of metformin that activates AMPK (The Journal of Biological Chemistry, Vol. 279, No. 42, pp. 43940-43951, 2004) was added starting from a final concentration of 15 mmol/L in 5 steps while continuing culture. Two hours later, the broth was removed and the cells were lysed with an SDS sample buffer (200 µL). This cell lysate (8 µL) was separated by an SDS-PAGE method (gel concentration: 7.5-15%) (Analytical Biochemistry, No. 166, pp. 368-379, 1987). Then, western blotting analysis was performed in the same manner as in Example 1 to quantify phosphorylated HER2, phosphorylated Akt and phosphorylated MAPK.
(§4) Human HER2-expressing human breast cancer cell line BT-474 (purchased from American Tissue Culture Collection (ATCC)) was seeded into a 24-multiwell plate (BT-474: 1.2 x 10^5 cells/well), and cultured overnight in a carbon dioxide gas incubator (5% CO2, 37°C). Mitochondrial respiratory chain complex 1-inhibiting compound rotenone (Wako Pure Chemical Industries) was added in 5 steps at final concentrations of 1, 0.333, 0.111, 0.033 and 0.011 µmol/L while continuing culture. Two hours later, the broth was removed and the cells were lysed with an SDS sample buffer (200 µL). Then, this cell lysate was used to perform western blotting analysis. Specifically, this cell lysate (8 µL) was separated by an SDS-PAGE method (gel concentration: 7.5-15%) (Analytical Biochemistry, No. 166, pp. 368-379, 1987) and transferred to a nitrocellulose membrane (BioRad). Then, an antibody specific to phosphorylated HER2 (Cell signaling technology, Code# 2244), an AMPK antibody specific to AMPK (Cell signaling technology, Code# 2535) and an anti-phosphorylated AMPK antibody specific to phosphorylated AMPK (Cell signaling technology, Code# 2532) were used to detect the antibody by chemiluminescent detection with an ECL system (Amersham) to quantify an amount of phosphorylated protein with LAS-1000 plus image analysis device (FUJIFILM).
Human HER2-expressing human breast cancer cell line BT-474 (purchased from American Tissue Culture Collection (ATCC)) was seeded into a 24-multiwell plate (BT-474: 1.2 x 10^5 cells/well) and cultured overnight in a carbon dioxide gas incubator (5% CO2, 37°C). […]

Assay [5] has as its system MDA-MB-231 breast cancer cell. Put plainly: Sulphorhodamine-B (SRB) cell proliferation assay. It is filed as cell-based. Conditions: Homo sapiens, MDA-MB-231, 120 h; HER2-nonexpressing cell; cultured for five days; SRB staining. As for the experimental part: (§5) BT-474 breast cancer cell (purchased from ATCC) was used as a human HER2-expressing cell and MDA-MB-231 breast cancer cell (purchased from ATCC) was used as a HER2-nonexpressing cell. These cells were seeded into a 96-multiwell plate (BT-474: 3.0 x 10^4 cells/well, MDA-MB-231: 1.5 x 10^4 cells/well), and cultured overnight in a carbon dioxide gas incubator (5% CO2, 37°C). A 4-fold dilution series of a mitochondrial respiratory chain complex-inhibiting compound (complex I: rotenone) was added starting from a final concentration of 10 µmol/L in 10 steps, and further cultured for five days. At the end of culture, the broth containing rotenone was removed, the cells were washed with a phosphoric acid buffer, immobilized with 5% trichloroacetic acid solution, and added with 0.4% (W/V) sulphorhodamine-B (SRB) dye solution (dissolved in 1% acetic acid) for staining the cellular protein. Subsequently, the SRB dye solution was removed from the plate and the plate was washed with a 1% acetic acid solution. Then, 100 µL 10 mM Tris buffer solution was added for extraction and dye dissolution, and absorbance at an absorption wavelength of 550 nm was measured to determine the cellular quantity as a protein amount (Journal of National Cancer Institute. Vol. 82, pp. 1107-1112, 1990). […]
A general note: The SRB assay estimates cell density from bound dye.

The test system of assay [6] is BT-474 breast cancer cell. Put plainly: Sulphorhodamine-B (SRB) cell proliferation assay. It is filed as cell-based. Conditions: Homo sapiens, BT-474, 120 h; HER2-expressing cell; cultured for five days; SRB staining. As for the experimental part: as §5
Assay [7] concerns MAPK. Put plainly: Western blotting of phosphorylated MAPK in BT-474 cells. The assay is classed as cell-based, human. Particulars: Example 2, 4-fold dilution series from 1 µmol/L in 5 steps, 2 hours. As for the experimental part:
as §2, §3

The test system of a further assay is EGFR. Put plainly: Western blotting of phosphorylated EGFR in A431 cells. It is filed as cell-based, human. Conditions: Example 9, 4-fold dilution series from 1 µmol/L in 5 steps, 2 hours. As for the experimental part:
Human EGFR-expressing human epidermal cancer cell line A431 (purchased from American Tissue Culture Collection (ATCC)) was seeded into a 24-multiwell plate (A431:6x10^4 cells/well), and cultured overnight in a carbon dioxide gas incubator (5% CO2, 37°C). A 4-fold dilution series of a mitochondria complex-inhibiting compound (complex I: rotenone, Wako Pure Chemical Industries) was added in 5 steps starting from a final concentration of 1 µmol/L while continuing culture. The broth was removed 2 hours later, and cells were lysed with an SDS sample buffer (200 µL). Western blotting analysis was conducted as follows. Specifically, this cell lysate (8 µL) was separated by an SDS-PAGE method (gel concentration: 7.5-15%) (Analytical Biochemistry, No. 166, pp. 368-379, 1987) and transferred onto a nitrocellulose membrane (BioRad). Subsequently, an antibody specific to phosphorylated EGFR (Cell signaling technology, Code# 2232) was used to detect an antibody with an ECL system (Amersham) to quantify the amount of phosphorylated protein by an image analysis.

A further assay relates to AMPK. Put plainly: Western blotting of AMPK protein amount in BT-474 cells. It is filed as cell-based, human. Particulars: Example 6, 1, 0.333, 0.111, 0.033 and 0.011 µmol/L, two hours. As for the experimental part: as §4
In a further assay the test system is phosphorylated AMPK. Put plainly: Western blotting of phosphorylated AMPK in BT-474 cells. Particulars: Example 6, 1, 0.333, 0.111, 0.033 and 0.011 µmol/L, two hours. The assay is classed as cell-based, human. As for the experimental part:
as §4

The test system of assay [8] is Akt. Put plainly: Western blotting of phosphorylated Akt in BT-474 cells. The assay is classed as cell-based, human. Conditions: Example 2, 4-fold dilution series from 1 µmol/L in 5 steps, 2 hours. As for the experimental part:
as §2, §3

The structures appear in SMILES notation. pIC50: −log10 of the molar value.

Turning to `O=CC[C@@H](O)[C@H](O)[C@H](O)CO` [2-deoxyglucose], in the assay with Akt [1], the Akt phosphorylation result is “suppressed phosphorylation of each protein”. Further, the MAPK phosphorylation result in the assay on MAPK [2] was “suppressed phosphorylation of each protein”. The HER2 phosphorylation result in the assay on HER2 [3] is reported as “suppressed phosphorylation of each protein”.
As to `C=C(C)[C@H]1Cc2c(ccc3c2O[C@@H]2COc4cc(OC)c(OC)cc4[C@@H]2C3=O)O1` [rotenone], the HER2 phosphorylation result was “suppression of HER2 phosphorylation was confirmed” in the assay on HER2 [4] (Example 2, 4-fold dilution series from 1 µmol/L in 5 steps, 2 hours); “decreased dose-dependently” in the assay with HER2 [4] (Example 6, 1, 0.333, 0.111, 0.033 and 0.011 µmol/L, two hours). The figures for the pIC50 in assay [5] and in assay [6] were 6.30 and 8.40, respectively. Moreover, the MAPK phosphorylation result in the assay on MAPK [7] is “suppressions of Akt and MAPK phosphorylations were also confirmed”. Further, the EGFR phosphorylation result in the assay with EGFR is on record as “No suppression of EGFR phosphorylation was observed”. The “amount of AMPK protein itself” value in the assay with AMPK is recorded as “A quantitative change was not observed”. Also, in the assay on phosphorylated AMPK, the “amount of AMPK phosphorylation” value is given as “increased dose-dependently”. Besides, in the assay with Akt [8], the Akt phosphorylation result is “suppressions of Akt and MAPK phosphorylations were also confirmed”.

The values above are taken from patent publication EP1902732A1, “PROPHYLACTIC/THERAPEUTIC AGENT FOR HER2-EXPRESSING CANCER” (Takeda Pharmaceutical Company Limited, priority 2005, dated 2006).
